# Measured values as given in the supplement of paper PMC10307832.
# Columns and labels:
# Experiment in all cases: relative viability (nuclei count vs DMSO), 5 days (fraction); higher = more cells survive
# [1] = test system: NCI-H1755
# Method in brief: (§1)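 Relative viability is defined as nuclei in treated wells over nuclei in vehicle wells. Duplicate plates were run and medians reported. Lung cancer cell lines in 1536-well plates were dosed by pin tool one day after seeding, with one drug or with a fixed anchor-drug dose plus five library-drug doses (not always all listed) in √10 steps, and nuclei were counted after 5 days.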
# [2] = test system: NCI-H3122
# Method in brief: as §1
# [3] = test system: NCI-H1355
# Method in brief: as §1
# [4] = test system: NCI-H1915
# Method in brief: as §1
# [5] = test system: SW 900
# Method in brief: as §1
# [6] = test system: NCI-H322M
# Method in brief: as §1
# [7] = test system: NCI-H522
# Method in brief: as §1
# [8] = test system: NCI-H1792
# Method in brief: as §1
# [9] = test system: PC-14
# Method in brief: as §1
# [10] = test system: NCI-H2347
# Method in brief: as §1
# [11] = test system: SK-MES-1
# Method in brief: as §1
# [12] = test system: NCI-H1651
# Method in brief: as §1
# [13] = test system: NCI-H661
# Method in brief: as §1
# [14] = test system: NCI-H441
# Method in brief: as §1
# [15] = test system: NCI-H596
# Method in brief: as §1
# [16] = test system: NCI-H727
# Method in brief: as §1
# [17] = test system: LXF-289
# Method in brief: as §1
# [18] = test system: NCI-H520
# Method in brief: as §1
# [19] = test system: LCLC-103H
# Method in brief: as §1
# [20] = test system: NCI-H460
# Method in brief: as §1
# [21] = test system: RERF-LC-KJ
# Method in brief: as §1
smiles,measurement,setting,value
Nc1ccn([C@@H]2O[C@H](CO)[C@@H](O)[C@@H]2O)c(=O)n1 [Cytarabine] + O=C(c1cc(Cc2n[nH]c(=O)c3ccccc23)ccc1F)N1CCN(C(=O)C2CC2)CC1 [Olaparib] (partner 8 µM),relative viability,[1]; first compound 0.005 µM,0.893
same,relative viability,[1]; first compound 0.01581 µM,0.889
same,relative viability,[1]; first compound 0.05 µM,0.584
same,relative viability,[1]; first compound 0.1581 µM,0.398
same,relative viability,[1]; first compound 0.5 µM,0.342
same,relative viability,[2]; first compound 0.005 µM,0.545
same,relative viability,[2]; first compound 0.01581 µM,0.658
same,relative viability,[2]; first compound 0.05 µM,0.585
same,relative viability,[2]; first compound 0.1581 µM,0.389
same,relative viability,[2]; first compound 0.5 µM,0.304
same,relative viability,[3]; first compound 0.005 µM,0.731
same,relative viability,[3]; first compound 0.01581 µM,0.673
same,relative viability,[3]; first compound 0.05 µM,0.57
same,relative viability,[3]; first compound 0.1581 µM,0.396
same,relative viability,[3]; first compound 0.5 µM,0.344
same,relative viability,[4]; first compound 0.005 µM,0.288
same,relative viability,[4]; first compound 0.01581 µM,0.253
same,relative viability,[4]; first compound 0.05 µM,0.261
same,relative viability,[4]; first compound 0.1581 µM,0.24
same,relative viability,[4]; first compound 0.5 µM,0.212
same,relative viability,[5]; first compound 0.005 µM,0.899
same,relative viability,[5]; first compound 0.01581 µM,0.797
same,relative viability,[5]; first compound 0.05 µM,0.413
same,relative viability,[5]; first compound 0.1581 µM,0.242
same,relative viability,[5]; first compound 0.5 µM,0.296
same,relative viability,[6]; first compound 0.005 µM,0.773
same,relative viability,[6]; first compound 0.01581 µM,0.695
same,relative viability,[6]; first compound 0.05 µM,0.467
same,relative viability,[6]; first compound 0.1581 µM,0.469
same,relative viability,[6]; first compound 0.5 µM,0.351
same,relative viability,[7]; first compound 0.005 µM,0.654
same,relative viability,[7]; first compound 0.01581 µM,0.602
same,relative viability,[7]; first compound 0.05 µM,0.813
same,relative viability,[7]; first compound 0.1581 µM,0.545
same,relative viability,[7]; first compound 0.5 µM,0.426
same,relative viability,[8]; first compound 0.01581 µM,0.399
same,relative viability,[8]; first compound 0.05 µM,0.248
same,relative viability,[8]; first compound 0.1581 µM,0.167
same,relative viability,[8]; first compound 0.5 µM,0.0776
same,relative viability,[9]; first compound 0.005 µM,0.227
same,relative viability,[9]; first compound 0.01581 µM,0.252
same,relative viability,[9]; first compound 0.05 µM,0.241
same,relative viability,[9]; first compound 0.1581 µM,0.105
same,relative viability,[9]; first compound 0.5 µM,0.0848
same,relative viability,[10]; first compound 0.005 µM,0.59
same,relative viability,[10]; first compound 0.01581 µM,0.569
same,relative viability,[10]; first compound 0.05 µM,0.522
same,relative viability,[10]; first compound 0.1581 µM,0.538
same,relative viability,[10]; first compound 0.5 µM,0.493
same,relative viability,[11]; first compound 0.005 µM,0.619
same,relative viability,[11]; first compound 0.01581 µM,0.527
same,relative viability,[11]; first compound 0.05 µM,0.313
same,relative viability,[11]; first compound 0.1581 µM,0.173
same,relative viability,[11]; first compound 0.5 µM,0.183
same,relative viability,[12]; first compound 0.005 µM,0.187
same,relative viability,[12]; first compound 0.01581 µM,0.193
same,relative viability,[12]; first compound 0.05 µM,0.181
same,relative viability,[12]; first compound 0.1581 µM,0.199
same,relative viability,[12]; first compound 0.5 µM,0.168
same,relative viability,[13]; first compound 0.005 µM,0.677
same,relative viability,[13]; first compound 0.01581 µM,0.773
same,relative viability,[13]; first compound 0.05 µM,0.646
same,relative viability,[13]; first compound 0.1581 µM,0.518
same,relative viability,[13]; first compound 0.5 µM,0.398
same,relative viability,[14]; first compound 0.005 µM,0.451
same,relative viability,[14]; first compound 0.01581 µM,0.48
same,relative viability,[14]; first compound 0.05 µM,0.375
same,relative viability,[14]; first compound 0.1581 µM,0.354
same,relative viability,[14]; first compound 0.5 µM,0.175
same,relative viability,[15]; first compound 0.005 µM,0.678
same,relative viability,[15]; first compound 0.01581 µM,0.692
same,relative viability,[15]; first compound 0.05 µM,0.591
same,relative viability,[15]; first compound 0.1581 µM,0.549
same,relative viability,[15]; first compound 0.5 µM,0.435
same,relative viability,[16]; first compound 0.005 µM,0.659
same,relative viability,[16]; first compound 0.01581 µM,0.541
same,relative viability,[16]; first compound 0.05 µM,0.679
same,relative viability,[16]; first compound 0.1581 µM,0.542
same,relative viability,[16]; first compound 0.5 µM,0.566
same,relative viability,[17]; first compound 0.005 µM,0.904
same,relative viability,[17]; first compound 0.01581 µM,0.829
same,relative viability,[17]; first compound 0.05 µM,0.709
same,relative viability,[17]; first compound 0.1581 µM,0.285
same,relative viability,[17]; first compound 0.5 µM,0.232
same,relative viability,[18]; first compound 0.005 µM,0.276
same,relative viability,[18]; first compound 0.01581 µM,0.272
same,relative viability,[18]; first compound 0.05 µM,0.337
same,relative viability,[18]; first compound 0.1581 µM,0.263
same,relative viability,[18]; first compound 0.5 µM,0.239
same,relative viability,[19]; first compound 0.005 µM,0.717
same,relative viability,[19]; first compound 0.01581 µM,0.725
same,relative viability,[19]; first compound 0.05 µM,0.906
same,relative viability,[19]; first compound 0.1581 µM,0.803
same,relative viability,[19]; first compound 0.5 µM,0.792
same,relative viability,[20]; first compound 0.005 µM,0.355
same,relative viability,[20]; first compound 0.01581 µM,0.367
same,relative viability,[20]; first compound 0.05 µM,0.237
same,relative viability,[20]; first compound 0.1581 µM,0.0662
same,relative viability,[20]; first compound 0.5 µM,0.0537
same,relative viability,[21]; first compound 0.005 µM,0.886
same,relative viability,[21]; first compound 0.01581 µM,0.806
same,relative viability,[21]; first compound 0.05 µM,0.655
same,relative viability,[21]; first compound 0.1581 µM,0.459
same,relative viability,[21]; first compound 0.5 µM,0.277
